Test results taken from patent publication US12102089B2, “Method for inactivating mold spores” (DSM IP ASSETS B.V., priority 2017, dated 2024).

Assay: LC-MS/MS analysis of natamycin and mycosamine in heated ice tea sample
Assay type: physicochemical
Conditions: 10 ppm natamycin at t=0, heated at 70° C.
Description: For the analysis of mycosamine at low concentrations (ppb level) a sample preparation is used with a cation exchange SPE material to isolate mycosamine from the sample matrix and/or remove possible interfering impurities therefrom. The analysis was performed on LC-MS/MS on a ZIC-HILIC column. For the identification and (semi) quantification a reference of mycosamine was prepared. The concentration of mycosamine in this reference was determined with ^1H-NMR.

Measured: mycosamine found in sample

C[C@@H](O)[C@@H](O)[C@H](N)[C@H](O)C=O [mycosamine]
2 mg/L: Example 1 ice tea sample (pH 3.15) | Example 2 ice tea sample | Example 3 ice tea sample
